The source of these data is patent publication US20220142169A1, “INHIBITING INSECTICIDE RESISTANCE AND MAKING SUSCEPTIBLE INSECTS HYPER-SUSCEPTIBLE TO PESTICIDES” (priority 2019, published 2022).

The test system of assay [1] is Drosophila melanogaster DDT-resistant 91-R strain. Briefly: DDT mortality bioassay (glass vial, 24 h) after two days of inhibitor feeding. The assay is classed as in vivo. As to conditions: for LD50: 24 h; for ratio of LD50 optimal / sub-optimal rearing conditions / Resistance Ratio: DDT; for ratio of LD50 optimal / sub-optimal rearing conditions: no inhibitor; for reduction of level of DDT resistance: optimal rearing condition; for decrease of DDT resistance: sub-optimal rearing condition. An excerpt:
(§1) Flies of 1-2 day old (females and males) were introduced into a plastic vial (28 mm×95 mm height) and fed with inhibitors mixed in 5% sucrose solution. […] After fed with inhibitor solutions for two days, 20 females or males from either the 91-R or 91-C strains were used in all DDT bioassays. To explore the effect of inhibitors, fruit flies under two different rearing conditions: optimal rearing condition and sub-optimal rearing condition were used in our study. Under optimal rearing condition, 100 pairs of flies were maintained in bottles (containing 50 ml standard medium) and allowed for laying eggs for four days. All adults were then removed to make sure the suitable density of larva. Differently, adults were not removed until emerging of next generation under sub-optimal rearing condition. Simply, optimal rearing condition provided enough food for flies, but sub-optimal rearing condition faced certain food pressure.
(§2) Briefly, various concentrations of DDT dissolved in acetone were transferred into 20 ml transparent glass vials and each rolled on its side in a fume hood till the acetone evaporated. […] Vials were capped with cotton plugs moistened with a 5% sucrose solution in distilled water. The number of dead flies were recorded after 24 hours.
(§3) For RT-qPCR, statistical analysis was performed using Student's t-test to compare the results between 91-C and 91-R. For glycogen assay and body weight, One-way ANOVA was used, and means comparisons were made by using Student's t test (p<0.05) by using SPSS software (Version 19.0; SPSS Inc., USA). The median lifespan under fed or starvation conditions were calculated using the Probit function in SPSS (Version 19.0; SPSS Inc, USA). For mortality bioassay, Probit analysis was conducted by using SPSS software (Version 19.0; SPSS Inc, USA).

Assay [2] concerns Drosophila melanogaster DDT-susceptible 91-C strain. The description is as above. In kind it is in vivo. To be noted: for LD50: 24 h; for reduction of level of DDT resistance: optimal rearing condition; for decrease of DDT resistance: sub-optimal rearing condition.
Source text: as §1, §2, §3

The test system of another assay is GSK3β-PO. As to conditions: listed beside gene GSK3β-PO; cited from earlier work.
In the next assay the test system is Drosophila 91-C strain. In words: Cypermethrin mortality bioassay (glass vial, 24 h) after inhibitor feeding. In kind it is in vivo, Drosophila melanogaster. To be noted: for LD50: 24 h. The method, then:
(§4) Adult flies were placed in bottles with instant drosophila blue diet (Formula 2-24®, carolina.com) made with inhibitor solutions for two days.
(§5) 200 μl of each concentration of solution as well as 200 μl acetone were transferred into 20 ml transparent glass vials and rolled on its side in a fume hood till the acetone completely evaporated. 20 flies of 91C, 91R and Canton-S stains were placed into vials for either female or male. Vials were capped with cotton plugs moistened with a 5% sucrose solution in distilled water. The number of dead flies were recorded after 24 hours. […] For each strain by sex combination, 8 concentrations of dosage were used including 0 control. A total of 8×3×20 flies were used for each of strain by sex combinations. For mortality bioassay, Probit analysis tool in SAS was used (SAS 9.4, SAS Ins, USA).

Another assay relates to Drosophila 91-R strain. The assay is described as above. In kind it is in vivo, Drosophila melanogaster. As to conditions: for LD50: 24 h. As for the experimental part: as §4, §5
Assay [3] has as its system Drosophila Canton-S strain. Described as above. In kind it is in vivo, Drosophila melanogaster. To be noted: for LD50: 24 h. The method, then:
as §4, §5

Setting [4] is: DDT LD50, 91-R♀, optimal dietary rearing.
Setting [5] is: DDT LD50, 91-R♀, sub-optimal dietary rearing.
The mark [6] stands for this setting: DDT LD50, 91-R♂, optimal dietary rearing.
Setting [7] is: DDT LD50, 91-R♂, sub-optimal dietary rearing.
The mark [8] stands for this setting: DDT LD50, 91-C♀, optimal dietary rearing, Hys 10 mM, LiCl 20 mM fed 2 days.
Setting [9] is: DDT LD50, 91-C♂ (so in the source), sub-optimal dietary rearing.
Setting [10] is: DDT LD50, 91-C♂, optimal dietary rearing.

For `Clc1ccc(C(c2ccc(Cl)cc2)C(Cl)(Cl)Cl)cc1` [DDT], the LD50 is reported as 136883.00 μg/vial in assay [1] (setting [4]); 523.34 μg/vial in assay [1] (setting [5]); 66073.00 μg/vial in assay [1] (setting [6]); 143.70 μg/vial in assay [1] (setting [7]); 51.59 μg/vial in assay [2] (setting [8]); 6.77 μg/vial in assay [2] (setting [9]). Besides, the LD50 in assay [2] (setting [10]) worked out at 19.81 μg/vial. The figures for the “ratio of LD50 optimal / sub-optimal rearing conditions” value in assay [1] (91-R females) and in assay [1] (91-R males) were 261.56 and 459.80, respectively. In assay [2] (DDT, 91-C females, no inhibitor), the “ratio of LD50 optimal / sub-optimal rearing condition” value is recorded as 7.62.
By IC50 is commonly meant the midpoint of a concentration-inhibition curve. Consider `NC1=N[C@H]2c3c([nH]c(Br)c3Br)C(=O)N3CCC[C@]23N1` [Dibromocantharelline], for which the IC50 in the assay with GSK3β-PO was 3 µM.
`NC1=NC(=O)/C(=C2\CCNC(=O)c3[nH]c(Br)cc32)N1` [Hymenialdesine]: the IC50 with GSK3β-PO is 0.01 µM.
With `NN.O=S(=O)(O)O` [Hys, hydrazine sulphate], the “Synergism Ratio” value in the assay on Drosophila 91-C strain (91-C♀) stood at 4.39; in the assay on Drosophila 91-C strain (91-C♂) it was 5.73; with Drosophila 91-R strain (91-R♀), 3.87; in the assay with Drosophila 91-R strain (91-R♂) it was 3.88; in assay [3] (Canton-S ♀), 3.58; in assay [3] (Canton-S ♂), 3.78.
For the compound `[Cl-].[Li+]` [LiCl, lithium chloride], the “reduction of level of DDT resistance” value in assay [1] (91-R females) is 1.6 fold; in assay [1] (91-R males), 20.5 fold; in assay [2] (91-C females), 4.2 fold; in assay [2] (91-C males), 2.7 fold. The “decrease of DDT resistance” value is listed as 3.3 fold in assay [1] (91-R females), “no significant decreased in resistance levels” in assay [1] (91-R males), 2.3 fold in assay [2] (91-C females) and 2.3 fold in assay [2] (91-C males). In addition, in assay [1] (91-R, both sexes, optimal rearing conditions), the “resistance ratio reduction / decrease of DDT resistance” value is given as 1.6-20.5 fold. The LD50 in assay [1] (setting [4]) is recorded as 83375.00 μg/vial; in assay [1] (setting [5]) it was 157.63 μg/vial; in assay [1] (setting [6]), 3224.00 μg/vial; in assay [1] (setting [7]), 126.69 μg/vial; in assay [2] (DDT LD50, 91-C♀ (so in the source), sub-optimal dietary rearing), 0.94 μg/vial; in assay [2] (setting [8]) it was 12.17 μg/vial. In addition, the LD50 turned out to be 2.96 μg/vial in assay [2] (setting [9]); 7.22 μg/vial in assay [2] (setting [10]); 0.13 μg/vial with Drosophila 91-C strain (91-C♀); 0.03 μg/vial in the assay on Drosophila 91-C strain (91-C♂); 0.17 μg/vial in the assay with Drosophila 91-R strain (91-R♀); 0.08 μg/vial in the assay with Drosophila 91-R strain (91-R♂). In addition, the LD50 in assay [3] (Canton-S ♀, Hys 10 mM, LiCl 20 mM in diet 2 days) worked out at 0.78 μg/vial; in assay [3] (Canton-S ♂), 0.9 μg/vial. Besides, the “Resistance Ratio” value in assay [1] (91-R♀, optimal rearing) was 1.64; in assay [1] (91-R♀, sub-optimal rearing), 3.37; in assay [1] (91-R♂, optimal rearing), 20.49; in assay [1] (91-R♂, sub-optimal rearing), 1.13; in assay [2] (DDT, 91-C♀ (so in the source), sub-optimal rearing), 2.26; in assay [2] (DDT, 91-C♂ (so in the source), sub-optimal rearing) it was 2.29. In addition, the “Resistance Ratio” value is given as 2.74 in assay [2] (DDT, 91-C♂, optimal rearing) and 4.24 in assay [2] (control LD50 vs inhibitor-fed, DDT, 91-C♀, optimal rearing). Also, the “Synergism Ratio” value with Drosophila 91-C strain (91-C♀) is on record as 4.93; with Drosophila 91-C strain (91-C♂) it was 11.92; in the assay on Drosophila 91-R strain (91-R♀), 4.58; with Drosophila 91-R strain (91-R♂), 3.36; in assay [3] (Canton-S ♀), 0.74; in assay [3] (Canton-S ♂), 0.60. Further, the IC50 with GSK3β-PO was 2000 µM.
